The text below walks through data of publication PMC3726599, “A Metabolically-Stabilized Phosphonate Analog of Lysophosphatidic Acid Attenuates Collagen-Induced Arthritis” (PLoS ONE, 2013).

One test relates to plasma LPA levels. The experiment in a line: In vivo plasma LPA and LPC levels (HPLC-MS/MS). The arrangement: species or system mouse. The settings on record: 10 mg/kg i.p. The procedure: BrP-LPA, LPA species (C14:0, C16:0, C18:0, C18:1 and C20:4) and LPC species (C14:0, C16:0, C18:0, C18:1 and C20:0) were measured in plasma with HPLC-ESI/MS/MS using RSLCnano system (Ultimate 3000) coupled in-line with an LTQ Orbitrap XL mass spectrometer (Thermo Scientific, Waltham, MA, USA). BrP-LPA and lipid (LPA, LPC) extraction from plasma was performed on ice according to the Folch method with minor modifications. Plasma samples (50 ul) were mixed with 950 ul PBS prior to extraction and spiked with the internal standard mix (17:1 LPA/LPC). Samples were extracted under neutral conditions with 4 ml of ice-cold CHCl3/CH3OH (2/1, v/v) followed by 2 ml of PBS-saturated ice-cold CHCl3/CH3OH (2/1, v/v). Each extraction step was followed by a 60 s vortex and a 1 min centrifugation step in a bench-top clinical centrifuge in a cold room at 4°C at 3,000 rpm. The lower chloroform organic phases from both neutral extraction steps were pooled and kept for LPC measurement. The remained aqueous phase was chilled on ice for 10 min and extracted twice with ice-cold acidified with acetic acid CHCl3/CH3OH (2/1, v/v) as above. The lower organic phases were pooled, neutralized to pH 6–7 (checked with pH paper as above) on ice and kept for LPA, BrP-LPA measurements. The kept neutral lower organic phase of neutral extraction and the neutralized acidified lower organic phase were evaporated to dryness. The resulting residues were resuspended in 0.15 ml of isopropanol and after brief vortex mixing the solution was transferred to the auto sampler vial. Recovery of LPA species was between 60% and 95%. Recovery of BrP-LPA was 70% and the recovery of LPC species was between 80% and 100%. The Relative Standard Deviation (RSD) was less than 7% from the plasma fortified with three different concentrations (0.1, 0.5 and 1 μΜ) of LPAs, (0.1, 1 and 10 μΜ) of BrP-LPA and (0.5, 5 and 50 μΜ) of LPCs. Analysis was performed using a Phenomenex (Phenomenex, Torrance, CA, USA) Luna Silica column (2–250 mm, 5 μm particle size) using a binary gradient program consisting of isopropanol:hexane:100 mM NH4CO2H(aq) 58:40:2 (mobile phase A) and isopropanol:hexane:100 mM NH4CO2H(aq) 50:40:10 (mobile phase B). The mobile phase was delivered at a flow rate of 0.3 ml/min and the total run time was 50 min/sample. […] The precursor ion mass was used for the quantification while lipid identity was confirmed by precursor ion fragmentation using collision induced dissociation (CID). […]
BrP-LPA was administered intraperitoneally (IP) at 10 mg/kg in water to 6–8 week old female mice. […] Plasma samples were then analysed for plasma ATX activity and BrP-LPA/LPA/LPC levels with the TOOS activity assay and HPLC-MS/MS respectively. […]

A further test has as its system LPA2. The conditions noted are these: Ca++ mobilization, RH7777 cells; kind of constant not given; read-out: inhibition of LPA2; cited from earlier work.
The test system of a further test is LPA4. The conditions noted are these: Ca++ mobilization, CHO cells; kind of constant not given; read-out: inhibition of LPA4; cited from earlier work.
For the next test, the system named is ATX. The settings on record: at 10 μM, substrate FS-3; cited from earlier work.
The test system of test [1] is transformed NIH3T3 cells expressing ras and ATX. Also on record: method as in PMID 18454946. The conditions noted are these: cited from earlier work.
The next test has as its system A549 cell. The arrangement: method as in PMID 20143443. The settings on record: A549, in vitro; cited from earlier work.
Test [2] relates to non-small cell lung cancer xenograft. Also on record: method as in PMID 20143443. The settings on record: three-dimensional non-small cell lung cancer xenograft; cited from earlier work.
The test system of test [3] is peri-tumor tissue fibroblasts, hepatocellular carcinoma cells. The arrangement: method as in PMID 21674557. The settings on record: cited from earlier work.
The subject of test [4] is human colon cancer cells (HCT-116). The arrangement: method as in earlier work. The settings on record: HCT-116, in vitro; cited from earlier work.
The test system of a further test is liver tumor. Also on record: method as in earlier work. The settings on record: in vivo; cited from earlier work.
A further test deals with lymphocyte trafficking. Also on record: method as in PMID 23365076. The conditions noted are these: cited from earlier work.

`CCCCCCCCCCCCCCCC(=O)OC[C@@H](O)CC(Br)P(=O)(O)O` (stereo partly drawn) [BrP-LPA, 1-bromo-3(S)-hydroxy-4-(palmitoyloxy)butyl-phosphonate]: in the test on plasma LPA levels, the “plasma LPC levels” value is reported as “remain unchanged” and the “production of LPA species in plasma” value is reported as “inhibited the production of all LPA species tested except from 14:0 LPA”. Also, in the test with plasma LPA levels (1 hour post administration), the “reduction of total plasma LPA levels” value came to 82%. The “LPA levels, % of normal initial levels” value in the test with plasma LPA levels (sixteen hours post administration) was 60–70%. For the same compound, in the test with LPA2, the IC50 is 1400 nM. The IC50 in the test on LPA4 is 270 nM. The “inhibition of lysophospholipase D activity of ATX” value in the test with ATX was 94%. Besides, in test [1], the inhibition of invasiveness is 40%. For the same compound, the “cell migration and invasiveness” value in the test on A549 cell was “inhibit cell migration and invasiveness”. The “tumor growth and angiogenesis” value in [2] is “inhibit tumor growth and angiogenesis”. Also, the “trans-differentiation of peri-tumor fibroblasts and HCC cell proliferation, migration, invasion” value in [3] is “block the trans-differentiation of peri-tumor tissue fibroblasts and the associated proliferation, migration and invasion of hepatocellular carcinoma cells”. Also, the “proliferation, migration and invasion” value in [4] is “reduce human colon cancer cells (HCT-116) proliferation, migration and invasion in vitro”. For the same compound, the “liver tumor weight and volume” value with liver tumor was “reduce liver tumor weight and volume in vivo”. For the same compound, the “lymphocyte trafficking in draining lymph nodes” value in the test with lymphocyte trafficking is “reduce lymphocyte trafficking in draining lymph nodes”.
